Assay [1] relates to C. albicans KCTC7965. The note with it: cited from earlier work.
Assay [2] relates to C. tropicalis var. tropicalis KCTC17762. The note with it: cited from earlier work.
The subject of assay [3] is C. parapsilosis var. parapsilosis KACC45480. The note with it: cited from earlier work.
Assay [4] deals with C. parapsilosis KACC49573. The note with it: cited from earlier work.
The test system of assay [5] is C. glabrata KCTC7219. The note with it: cited from earlier work.
The subject of assay [6] is C. auris KCTC17809. The note with it: cited from earlier work.
The test system of assay [7] is Malassezia restricta. The assay can be described thus: Broth microdilution MIC assay (EUCAST guidelines, slight modifications), resazurin fluorescence. The note with it: 48 h-60 h at 34° C. It is filed as cell-based. The method, then:
Objective: Sclareolide antifungal potential on Malassezia restricta was evaluated by the broth microdilution method.
Protocol: Malassezia restricta was routinely grown on modified Leeman-Notman (mLN) agar. The broth microdilution assay was performed following EUCAST guidelines (www.eucast.org) with slight modifications. Between five and ten colonies were suspended in a modified RPMI 1640 media supplemented with resazurin at a D.O (Density Optical) of 0.1. In a 96 well plate, serial dilutions of sclareolide (0.00023% to 0.12%) from a 24% stock solution in DMSO, and ketoconazole (0.001 to 0.25 μg/ml) solutions were prepared in modified RPMI 1640 culture medium. An equal volume of Malassezia restricta inoculum was added to the test samples at different concentrations. Following 48 h-60 h of incubation at 34° C., resazurin fluorescence was analyzed at 530 nm and 590 nm.
Results and conclusion: Results are presented as relative fluorescence intensity compared to DMSO control. MIC is defined as the lowest drug concentration that prevents growth of microorganisms.
(In general: In broth dilution the organism is exposed to a series of concentrations in liquid medium.)

For assay [8], the system named is scalp reconstructed human epidermis. Kind of assay: Malassezia restricta applied topically to scalp reconstructed human epidermis: histology and cytokine ELISA. It is filed as cell-based. The note with it: sclareolide 0.12% topical, two applications. The text has this: Objective: Sclareolide anti-inflammatory effect and barrier function prevention was quantified by cytokine quantification and histological observation respectively
Protocol: Malassezia restricta was applied topically to a scalp reconstructed human epidermis. This in vitro model is reconstructed from keratinocytes isolated from scalp skin. More precisely, the location of the epidermis used to isolate keratinocytes is interfollicular epidermis. These interfollicular keratinocytes was harvested and transferred into a cell culture insert and after several days of reconstruction, 100 μl of Malassezia restricta was applied on the top of the epidermis. Two days later, 100 μL sclareolide at a concentration of 0,12% was applied on the top of the epidermis, another application was performed after 24 hours. Ninety-six hours after the beginning of the Malassezia treatment, scalp reconstructed epidermis was stopped to performed histological analysis to observe modifications in the upper layers of the epidermis and the supernatant was harvested to measure inflammatory cytokine release by ELISA method.
In parallel, sclareolide decreased the inflammation induced by Malassezia restricta by the decrease of interleukin-8 release by 40,3% illustrated by FIG. 2.

Assay [9] has as its system keratin 10. Kind of assay: Keratin 10 immunohistochemistry in biopsies of healthy human abdominal skin in culture. It counts as cell-based. As for the experimental part:
Objective: The aim of this study is to show the effect of sclareolide on the synthesis of keratin 10 in biopsies of healthy abdominal skin.
Method: keratin 10 was assessed by immunohistochemistry with a specific antibody. […] Control biopsies received only 0.1% DMSO. The immunostaining was performed using paraffin sections incubated in the presence of anti-keratin 10 antibody (rabbit monoclonal, Abcam). After an hour and a half of incubation followed by rinses, the sections were incubated in the presence of the secondary anti-rabbit antibody coupled with a fluorophore (Alexa Fluor® 488, Invitrogen). The sections were then examined under a fluorescence microscope (Nikon Eclipse Ni-E microscope). […] fluorescence was then observed (using NiS-AR Nikon acquisition software) and quantified by image analysis (Volocity® image analysis software, Improvision).
(§1) This effect may be associated with a better quality of the skin barrier function.

For assay [10], the system named is epidermal lipids. Kind of assay: Epidermal lipids, Nile Red staining, in biopsies of healthy human abdominal skin in culture. It counts as cell-based. The method, then:
Objective: The aim of this study is to show the effect of sclareolide on the synthesis of epidermal lipids in biopsies of healthy abdominal skin.
Method: Epidermal lipids were assessed by fluorescent staining by using the fluorescent dye Nile Red.
[…] Control biopsies received only 0.1% DMSO. The epidermal lipids staining was performed using paraffin sections incubated with 100 nM of Nile Red solution (Sigma) for 10 minutes. The sections were then examined under a fluorescence microscope (Nikon Eclipse Ni-E microscope). Red fluorescence was then observed (using NiS-AR Nikon acquisition software) and quantified by image analysis (Volocity® image analysis software, Improvision).
as §1

[11] abbreviates: modified RPMI 1640, relative fluorescence vs DMSO control.
Setting [12] is: sclareolide 0.0025% in 0.1% DMSO, twice a day for 48 hours topically, vs 0.1% DMSO control.
Where [13] appears, read: skin biopsies cultures, composition comprising of sclareolide.

Converted amounts (≈) assume the structure as drawn.

Consider three compounds from patent US20250177347A1, “SCLAREOL OR SCLAREOLIDE FOR USE IN THE TREATMENT OF INFLAMMATORY SKIN CONDITIONS” (ISP Investments LLC, priority 2022, published 2025).

As to `C=C[C@](C)(O)CC[C@@H]1[C@@]2(C)CCCC(C)(C)[C@@H]2CC[C@@]1(C)O` [Sclareol], the “Growth, biofilm formation, and yeast-hyphal transition” value is “inhibiting growth, biofilm formation, and yeast-hyphal transition” in assay [1]; “inhibiting growth, biofilm formation, and yeast-hyphal transition” in assay [2]; “inhibiting growth, biofilm formation, and yeast-hyphal transition” in assay [3]; “inhibiting growth, biofilm formation, and yeast-hyphal transition” in [4]; “inhibiting growth, biofilm formation, and yeast-hyphal transition” in assay [5]; “inhibiting growth, biofilm formation, and yeast-hyphal transition” in assay [6].

With `CC(=O)N1CCN(c2ccc(OCC3COC(Cn4ccnc4)(c4ccc(Cl)cc4Cl)O3)cc2)CC1` (stereo not drawn) [ketoconazole, reference compound], it took 0.0625 µg/mL (≈ 0.118 µM) to inhibit growth in assay [7] (Malassezia restricta, modified RPMI 1640) (MIC).

Turning to `CC1(C)CCC[C@]2(C)[C@H]3CC(=O)O[C@]3(C)CC[C@@H]12` [sclareolide, Sclareolide], in assay [7] (setting [11]), the “Concentration at which growth of Malassezia restricta was completely inhibited (MIC)” value stood at 0.12% and the “Concentration from which growth of Malassezia restricta was significantly inhibited” value is reported as 0.015%. Besides, the “Barrier function / penetration of Malassezia restricta in upper layers of the epidermis (histology)” value in [8] (96 h) was “prevented the disruption of the barrier function and the penetration of Malassezia restricta in the upper layers of the epidermis”. Further, the “Decrease of interleukin-8 release” value in assay [8] (inflammation induced by Malassezia restricta, ELISA of supernatant at 96 h) is given as 40,3%. In addition, the “Levels of keratin 10” value in assay [9] (setting [12]) is listed as “increase the levels of keratin 10”. For the same compound, in assay [9] (setting [13]), the “Keratin 10 expression” value is “increased”. The “Levels of epidermal lipids” value in assay [10] (setting [12]) was “increase the levels of epidermal lipids”. Further, in assay [10] (setting [13]), the Total lipid content result was “increased”.
